According to PubChem BioAssay (NCI):
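Exposure lasted 48 hours, with cells grown in 96-well plates and compounds tested at five concentrations. TGI: concentration producing complete growth inhibition.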

Assays:
Test in all cases: NCI tumour cell line growth inhibition, 48 h
[1] = system: CCRF-CEM leukemia
[2] = system: HS 578T breast
[3] = system: NCI-H460 lung
[4] = system: MDA-MB-435
[5] = system: CAKI-1 renal
[6] = system: M14 melanoma
[7] = system: T-47D breast
[8] = system: SF-539 CNS
[9] = system: RXF 393 renal
[10] = system: MDA-MB-231 breast
[11] = system: RPMI-8226 leukemia
[12] = system: OVCAR-8 ovarian
[13] = system: TK-10 renal

Structure (SMILES) | TGI [1] [µM] | TGI [2] [µM] | TGI [3] [µM] | TGI [4] [µM] | TGI [5] [µM] | TGI [6] [µM] | TGI [7] [µM] | TGI [8] [µM] | TGI [9] [µM] | TGI [10] [µM] | TGI [11] [µM] | TGI [12] [µM] | TGI [13] [µM]
N/C(COc1ccc(Cl)cc1)=N\NC(=O)c1ccncc1 | > 100 | > 100 | > 100 | > 100 | > 100 | > 100 | > 100 | > 100 | > 100 | > 100 | > 100 | > 100 | > 100
COC(=O)/C(=C\c1cn(C(C)=O)c2ccccc12)P(=O)(OC)OC | > 100 | > 100 | 31.1 | 64.7 | 27 | 28.5 | 33.1 | 38.7 | 32.8 | 24.1 | 93.9 | 68.9 | 36
COc1ccc(/C=C2\CN(C)CC3C2=NC(=S)NC3c2ccc(OC)cc2)cc1 (stereo not drawn) | > 24.7 | > 100 | 59.8 | 7.86 | > 100 | 15.8 | > 29.9 | 59.5 | 7.49 | > 59.1 | > 24.7 | > 100 | > 100
CN(C)CCCNc1ccc2nnn3c4ccc(OC(=O)c5ccc([N+](=O)[O-])cc5)cc4c(=O)c1c23 | 5.39 | 34.8 | 17.9 | 20.2 | 7.59 | 27 | 88.5 | 19.3 | 9.08 | 23.3 | 18.6 | 20.8 | 24.9
CC1CC(C)(O)CC(C(O)CC2CC(=O)NC(=O)C2)C1=O (stereo not drawn) | 1.53 | 0.316 | 1.76 | 2.1 | 0.0916 | 0.551 | 3.18 | 0.226 | 1.05 | 0.0651 | 0.564 | 2.89 | 3.99
Clc1ccc(-c2nc3ccc(C45CC6CC(CC(C6)C4)C5)cc3[nH]2)cc1 | > 100 | > 100 | > 90.5 | > 100 | > 100 | > 100 | > 100 | > 100 | > 100 | > 100 | > 100 | > 100 | 98.9
